Laboratory results as given in US20250049937A1, “NOVEL AURISTATIN ANALOGS AND IMMUNOCONJUGATES THEREOF” (priority 2021, published 2025).

Tested on: HCC1954 breast ductal carcinoma cells
Test: HCC1954 5-day cell viability assay (Cell Titer Glo 2.0)
Format: cell-based
Conditions: Homo sapiens, HCC1954, 120 h, read-out: IC50 (HCC1954 5-Day Assay)
Procedure: (§1) *Biological assay protocol: HCC1954 breast ductal carcinoma or SK-BR-3 cells (ATCC, Manassas, VA, USA) were seeded into 384-well white-walled culture plates and allowed to adhere for 2-4 hours. Cells were then treated with test articles at least in duplicate by addition of 5-fold serially diluted test articles prepared at 2× final concentration and incubated at 37° C. for 120 hours. Cell viability following treatment was determined by Cell Titer Glo 2.0 Assay (Promega, Madison, WI, USA) and normalized to non-treated controls. Dose-response relationships were analyzed using GraphPad Prism (La Jolla, CA, USA), and IC50 values were derived from non-linear regression analyses using a 4-parameter logistic equation
as §1, with “HCC1954” for “*Biological assay protocol: HCC1954”, “carcinoma” for “carcinoma or SK-BR-3”, “treated” for “treated with test articles”, “equation.” for “equation”

Row | Compound | IC50
1 | CC[C@H](C)[C@@H]([C@@H](CC(=O)N1CCC[C@H]1[C@H](OC)[C@@H](C)C(=O)N[C@H](CC#N)Cc1ccc(N)cc1)OC)N(C)C(=O)[C@@H](NC(=O)[C@H](C(C)C)N(C)C)C(C)C [Compound 1, (S)—N-((3R,4S,5S)-1-((S)-2-((1R,2R)-3-(((S)-1-(4-aminophenyl)-3-cyanopropan-2-yl)amino)-1-methoxy-2-methyl-3-oxopropyl)pyrrolidin-1-yl)-3-methoxy-5-methyl-1-oxoheptan-4-yl)-2-((S)-2-(dimethylamino)-3-methylbutanamido)-N,3-dimethylbutanamide] | 0.31 nM
2 | CC[C@H](C)[C@@H]([C@@H](CC(=O)N1CCC[C@H]1[C@H](OC)[C@@H](C)C(=O)N[C@H](CC#N)Cc1cccc(N)c1)OC)N(C)C(=O)[C@@H](NC(=O)[C@H](C(C)C)N(C)C)C(C)C [Compound 2, (S)—N-((3R,4S,5S)-1-((S)-2-((1R,2R)-3-(((S)-1-(3-aminophenyl)-3-cyanopropan-2-yl)amino)-1-methoxy-2-methyl-3-oxopropyl)pyrrolidin-1-yl)-3-methoxy-5-methyl-1-oxoheptan-4-yl)-2-((S)-2-(dimethylamino)-3-methylbutanamido)-N,3-dimethylbutanamide] | 0.37 nM
3 | CC[C@H](C)[C@@H]([C@@H](CC(=O)N1CCC[C@H]1[C@H](OC)[C@@H](C)C(=O)N[C@H](CC#N)Cc1cccc(N)c1)OC)N(C)C(=O)[C@@H](NC(=O)[C@@H](C(C)C)N(C)C)C(C)C [Compound 3, (S)—N-((3R,4S,5S)-1-((S)-2-((1R,2R)-3-(((S)-1-(3-aminophenyl)-3-cyanopropan-2-yl)amino)-1-methoxy-2-methyl-3-oxopropyl)pyrrolidin-1-yl)-3-methoxy-5-methyl-1-oxoheptan-4-yl)-2-((R)-2-(dimethylamino)-3-methylbutanamido)-N,3-dimethylbutanamide] | 0.12 nM
4 | CC[C@H](C)[C@@H]([C@@H](CC(=O)N1CCC[C@H]1[C@H](OC)[C@@H](C)C(=O)N[C@H](CC#N)Cc1cccc(N)c1)OC)N(C)C(=O)[C@@H](NC(=O)[C@H](C)N(C)C)C(C)C [Compound 4, (S)—N-((3R,4S,5S)-1-((S)-2-((1R,2R)-3-(((S)-1-(3-aminophenyl)-3-cyanopropan-2-yl)amino)-1-methoxy-2-methyl-3-oxopropyl)pyrrolidin-1-yl)-3-methoxy-5-methyl-1-oxoheptan-4-yl)-2-((S)-2-(dimethylamino)propanamido)-N,3-dimethylbutanamide] | 0.49 nM
5 | CC[C@H](C)[C@@H]([C@@H](CC(=O)N1CCC[C@H]1[C@H](OC)[C@@H](C)C(=O)N[C@H](CC#N)Cc1cccc(N)c1)OC)N(C)C(=O)[C@@H](NC(=O)[C@@H](C)N(C)C)C(C)C [Compound 5, (S)—N-((3R,4S,5S)-1-((S)-2-((1R,2R)-3-(((S)-1-(3-aminophenyl)-3-cyanopropan-2-yl)amino)-1-methoxy-2-methyl-3-oxopropyl)pyrrolidin-1-yl)-3-methoxy-5-methyl-1-oxoheptan-4-yl)-2-((R)-2-(dimethylamino)propanamido)-N,3-dimethylbutanamide] | 0.37 nM
6 | CC[C@H](C)[C@@H]([C@@H](CC(=O)N1CCC[C@H]1[C@H](OC)[C@@H](C)C(=O)N[C@H](CC#N)Cc1cccc(N)c1)OC)N(C)C(=O)[C@@H](NC(=O)CN(C)C)C(C)C [Compound 6, (S)—N-((3R,4S,5S)-1-((S)-2-((1R,2R)-3-(((S)-1-(3-aminophenyl)-3-cyanopropan-2-yl)amino)-1-methoxy-2-methyl-3-oxopropyl)pyrrolidin-1-yl)-3-methoxy-5-methyl-1-oxoheptan-4-yl)-2-(2-(dimethylamino)acetamido)-N,3-dimethylbutanamide] | 0.78 nM
7 | CC[C@H](C)[C@@H]([C@@H](CC(=O)N1CCC[C@H]1[C@H](OC)[C@@H](C)C(=O)N(C)[C@H](CC#N)Cc1cccc(N)c1)OC)N(C)C(=O)[C@@H](NC(=O)[C@H](C(C)C)N(C)C)C(C)C [Compound 7, (S)—N-((3R,4S,5S)-1-((S)-2-((1R,2R)-3-(((S)-1-(3-aminophenyl)-3-cyanopropan-2-yl)(methyl)amino)-1-methoxy-2-methyl-3-oxopropyl)pyrrolidin-1-yl)-3-methoxy-5-methyl-1-oxoheptan-4-yl)-2-((S)-2-(dimethylamino)-3-methylbutanamido)-N,3-dimethylbutanamide] | 0.07 nM
8 | CC[C@H](C)[C@@H]([C@@H](CC(=O)N1CCC[C@H]1[C@H](OC)[C@@H](C)C(=O)N(C)[C@H](CC#N)Cc1cccc(N)c1)OC)N(C)C(=O)[C@@H](NC(=O)[C@H](C)N(C)C)C(C)C [Compound 8, (S)—N-((3R,4S,5S)-1-((S)-2-((1R,2R)-3-(((S)-1-(3-aminophenyl)-3-cyanopropan-2-yl)(methyl)amino)-1-methoxy-2-methyl-3-oxopropyl)pyrrolidin-1-yl)-3-methoxy-5-methyl-1-oxoheptan-4-yl)-2-((S)-2-(dimethylamino)propanamido)-N,3-dimethylbutanamide] | 0.22 nM
9 | CC[C@H](C)[C@@H]([C@@H](CC(=O)N1CCC[C@H]1[C@H](OC)[C@@H](C)C(=O)N(C)[C@H](CC#N)Cc1cccc(N)c1)OC)N(C)C(=O)[C@@H](NC(=O)[C@@H](C)N(C)C)C(C)C [Compound 9, (S)—N-((3R,4S,5S)-1-((S)-2-((1R,2R)-3-(((S)-1-(3-aminophenyl)-3-cyanopropan-2-yl)(methyl)amino)-1-methoxy-2-methyl-3-oxopropyl)pyrrolidin-1-yl)-3-methoxy-5-methyl-1-oxoheptan-4-yl)-2-((R)-2-(dimethylamino)propanamido)-N,3-dimethylbutanamide] | 0.58 nM
